Results published in article PMC8348310, “Antioxidants Isolated from Elaeagnus umbellata (Thunb.) Protect against Bacterial Infections and Diabetes in Streptozotocin-Induced Diabetic Rat Model” (Molecules, 2021).
Values after ≈ are worked out from the molar mass of the structure shown. Values joined by “and” are separate entries in the source; they are usually repeats but may differ in a detail not shown here. Identical values can stand only once.

Tests used:
[1] = DPPH free radical scavenging assay; assay type: biochemical; settings: for DPPH IC50: linear regression of % scavenging vs concentration
Experimental: According to the Brand-Williams assay DPPH (2, 2-diphenyl-1-picrylhydrazyl) free radical scavenging activity of morin was determined. DPPH and compounds stock solutions (1 mg/mL) were prepared in 100 mL methanol with serial dilutions of […], 62.5, 250, 500, and 1000 µg/mL. After that, 0.1 mL morin was mixed with 3.0 mL DPPH solution and incubated at 23 °C for 30 min. Standard ascorbic acid solution was also prepared in the same way using as a positive control. Finally, absorbance was measured at 517 nm via UV spectrophotometer. Results were taken in a set of three experiments and represented as mean ± SEM. Percent free radicals scavenging potential was calculated according to the following Equation (1): (1) % Free radicals Scavenging potential = Blank sample absorbance−sample absorbance/Blank sample absorbance×100
(§1) All the in vitro and in vivo experiments were analyzed in three replicates and determined as mean ± SEM. Student’s t-test and one way ANOVA followed by Dunnett’s post hoc multiple comparison test was used. p ≤ 0.05 were considered as significant. Linear regression analysis was used to calculate the IC50 value for % DPPH, ABTS, α-amylase, and α-glucosidase inhibition against the different concentrations of the test samples by means of Excel program 2007.

[2] = ABTS free radical scavenging assay; assay type: biochemical; settings: for ABTS IC50: linear regression of % scavenging vs concentration
Experimental: ABTS (2,2′-azinobis-3-ethylbenzothiazoline-6-sulfonic acid) free radicals inhibition potential were determined according to the reported assay. ABTS solution was prepared in methanol (100 mL). In total, 300 µL of compound (morin, phloroglucinol, and 1-hexyl benzene) was mixed thoroughly with 3.0 mL ABTS solution and incubated for six minutes. Finally, the absorbance was measured through UV spectrophotometer using ascorbic acid as positive control. Percent ABTS free radicals scavenging potential was calculated using the equation No. 1.
as §1

[3] = test system: Bacillus cereus; test: Agar well diffusion, zone of inhibition; assay type: cell-based; settings: 37 °C, 24 h; for Zone of Inhibition: 100 µg/mL
Experimental: (§2) Antibacterial potential of isolated compound was investigated against both Gram-positive and Gram-negative bacterial strains; Escherichia coli, Bacillus cereus, Salmonella typhi, Klebsiella pneumonia, Pseudomonas aeruginosa and Proteus mirabilis. Bacterial strains were provided by the Department of Pharmacy, University of Malakand, Khyber Pakhtunkhwa, Pakistan, and were kept at 4 °C in agar slants in freeze-dried condition until further use.
(§3) Both Gram-positive and Gram-negative bacterial strains Escherichia coli, Bacillus cereus, Salmonella typhi, Klebsiella pneumonia, Pseudomonas aeruginosa and Proteus mirabilis organism viable count per mL in the stock suspension was determined using surface viable counting technique. About 10^8–10^9 colony-forming units (CFU) per mL were used as inoculum in subsequent experiments. A fresh stock suspension was used each time.
(§4) The antibacterial activity of the isolated compounds (morin, phloroglucinol, and 1-hexyl benzene) was determined using agar well diffusion method. Muller–Hinton agar media was prepared and autoclaved at 15 lbs pressure for 20 min and cooled to 45 °C. The standard bacterial stock suspension 10^8–10^9 CFU/mL were spread on Muller–Hinton agar plates and five wells (3 mm in diameter; four on side and one in center) were punched in plates using a sterile cork borer. The entire wells were filled with 100 µL of the isolated compounds (stock solution: 1 mg/mL) using microtiter-pipette and allowed to diffuse at room temperature for 2 h. The plates were incubated at 37 °C for 24 h. In the center hole, Imipenem was added which served as positive control. Simultaneous, addition of an equal concentration of DMSO solvent instead of isolated compounds was used as blank. After incubation, the zones of inhibition were measured in millimeters (mm) and mean values were calculated. The experiments were performed in triplicates.

[4] = test system: Escherichia coli; test: Agar well diffusion, zone of inhibition; assay type: cell-based; settings: 37 °C, 24 h; for Zone of Inhibition: 100 µg/mL
Experimental: as §2, §3, §4

[5] = test system: Klebsiella pneumonia; test: Agar well diffusion, zone of inhibition; assay type: cell-based; settings: 37 °C, 24 h; for Zone of Inhibition: 100 µg/mL; for zone of inhibition at 100 µg/mL: Klebsiella pneumoniae
Experimental: as §2, §3, §4

[6] = test system: Proteus mirabilis; test: Agar well diffusion, zone of inhibition; assay type: cell-based; settings: 37 °C, 24 h; for Zone of Inhibition: 100 µg/mL
Experimental: as §2, §3, §4

[7] = test system: Pseudomonas aeruginosa; test: Agar well diffusion, zone of inhibition; assay type: cell-based; settings: 37 °C, 24 h; for Zone of Inhibition: 100 µg/mL
Experimental: as §2, §3, §4

[8] = test system: Staphylococcus aureus; test: Agar well diffusion, zone of inhibition; assay type: cell-based; settings: 37 °C, 24 h; for Zone of Inhibition: 100 µg/mL
Experimental: as §4, with “The standard bacterial stock suspension 10^8–10^9 CFU/mL were spread on Muller–Hinton agar plates and five wells (3 mm in diameter; four on side and one in center) were punched in plates using a sterile cork borer.” left out

[9] = test system: Salmonella typhi; test: Broth dilution MIC determination; assay type: cell-based; settings: Salmonella enterica, 24 h, read-out: Minimum Inhibitory Concentrations
[10] = DPPH free radical scavenging assay; assay type: biochemical; settings: 125 µg/mL

Compound | % DPPH Scavenging Mean ± SEM ([1]; 31.05 µg/mL) | % DPPH Scavenging Mean ± SEM ([1]; 62.5 µg/mL) | % DPPH Scavenging Mean ± SEM ([1]; 250 µg/mL) | % DPPH Scavenging Mean ± SEM ([1]; 500 µg/mL) | % DPPH Scavenging Mean ± SEM ([1]; 1000 µg/mL) | DPPH IC50 [1] | % ABTS Scavenging Mean ± SEM ([2]; 31.05 µg/mL) | % ABTS Scavenging Mean ± SEM ([2]; 62.5 µg/mL) | % ABTS Scavenging Mean ± SEM ([2]; 125 µg/mL) | % ABTS Scavenging Mean ± SEM ([2]; 250 µg/mL) | % ABTS Scavenging Mean ± SEM ([2]; 500 µg/mL) | % ABTS Scavenging Mean ± SEM ([2]; 1000 µg/mL) | ABTS IC50 [2] | Zone of Inhibition [3] | zone of inhibition at 100 µg/mL [3] | Zone of Inhibition [4] | zone of inhibition at 100 µg/mL [4] | Zone of Inhibition [5] | zone of inhibition at 100 µg/mL [5] | Zone of Inhibition [6] | other results
CCCCCCc1ccccc1 [1-Hexyl benzene, 1-hexylbenzene] | 28 ± 1.1 % | 35 ± 0.4 % | 46 ± 0.5 % | 53 ± 2.1 % | 59 ± 1.5 % | 118 µg/mL | 19 ± 1.4 % | 26 ± 0.5 % | 31 ± 1.0 % | 39 ± 1.5 % | 47 ± 2.2 % | 55 ± 1.1 % | 129 µg/mL | 8.5 ± 0.1 mm | 8.5 ± 0.1 mm | 9.3 ± 1.1 mm | 9.3 ± 1.1 mm | 6.3 ± 0.5 mm | 6.3 ± 0.5 mm | 4.5 ± 1.5 mm | zone of inhibition at 100 µg/mL [6]: 4.5 ± 1.5 mm; Zone of Inhibition [7]: 5.5 ± 0.5 mm; zone of inhibition at 100 µg/mL [7]: 5.5 ± 0.5 mm; Zone of Inhibition [8]: 3.4 ± 0.4 mm; zone of inhibition at 100 µg/mL [8]: 3.4 ± 0.4 mm; MIC [9]: 112 ± 1.6 µg/mL (≈ 690 µM); % DPPH Scavenging Mean ± SEM [10]: 40 ± 1.1 %
O=c1c(O)c(-c2ccc(O)cc2O)oc2cc(O)cc(O)c12 [Morin, 2-(2,4-Dihydroxyphenyl)-3,5,7-trihydroxychromen-4-one] | 54 ± 0.5 % | 59 ± 1.3 % | 76 ± 1.0 % | 83 ± 0.5 ^ns % | 88± 1.1% and 88 ± 1.1 ^ns % | 37 µg/mL | 45 ± 0.5 % | 57 ± 1.4 % | 64 ± 1.2 % | 75 ± 0.5 ^ns % | 80 ± 1.0 ^ns % | 88 ± 1.0% and 88 ± 1.0 ^ns % | 40 µg/mL | 17 ± 0.1 mm | 17 ± 0.1 mm | 19 ± 1.1 mm | 19 ± 1.1 mm | 15 ± 0.5 mm | 15 ± 0.5 mm | 11 ± 1.5 mm | zone of inhibition at 100 µg/mL [6]: 11 ± 1.5 mm; Zone of Inhibition [7]: 14 ± 0.5 mm; zone of inhibition at 100 µg/mL [7]: 14 ± 0.5 mm; Zone of Inhibition [8]: 13 ± 0.4 mm; zone of inhibition at 100 µg/mL [8]: 13 ± 0.4 mm; MIC [9]: 28 ± 1 µg/mL (≈ 92.6 µM); % DPPH Scavenging Mean ± SEM [10]: 68 ± 1.2 %
Oc1cc(O)cc(O)c1 [Phloroglucinol, Benzene-1,3,5-triol] | 32 ± 0.5 % | 36 ± 1.1 % | 51 ± 1.0 % | 57 ± 1.0 % | 67 ± 0.4 % | 105 µg/mL | 25 ± 1.0 % | 33 ± 0.5 % | 39 ± 1.2 % | 45 ± 1.0 % | 51 ± 0.5 % | 64 ± 1.1 % | 112 µg/mL | 13 ± 1.2 mm | 13 ± 1.2 mm | 15 ± 0.3 mm | 15 ± 0.3 mm | 11 ± 0.5 mm | 11 ± 0.5 mm | 7.5 ± 0.2 mm | zone of inhibition at 100 µg/mL [6]: 7.5 ± 0.2 mm; Zone of Inhibition [7]: 10 ± 1.1 mm; zone of inhibition at 100 µg/mL [7]: 10 ± 1.1 mm; Zone of Inhibition [8]: 9.5 ± 2.1 mm; zone of inhibition at 100 µg/mL [8]: 9.5 ± 2.1 mm; MIC [9]: 175 ± 2 µg/mL (≈ 1390 µM); % DPPH Scavenging Mean ± SEM [10]: 40 ± 0.5 %
